The data set in a line: Human HepG2 cell viability assay in 384 well format. The format is toxicity, cell-based. Also noted: dose 125 nL, time 70.5 hour; cytotoxicity at 70.5 h: concentration not given beside the values. As to conditions: HepG2 cells, read-out: Inhibition.

The structures appear in SMILES notation.

For `CC(C)c1nnc2n1CCN(C(=O)c1ccc3c(c1)COC3)C2`, the cytotoxicity at 70.5 h was -0.783%.
As for `CSCC(=O)Nc1ncn(Cc2cccc(Br)c2)n1`, the figure is -8.51%.
As to `Cn1cnc2c1CCN(CC(O)c1ccc3c(c1)OCCO3)C2` (stereo not given), the cytotoxicity at 70.5 h stood at 9.43%.
Consider `Cc1cc(C)n(CC2CCCN2C(=O)Cc2csc(C)n2)n1` (stereo not given), for which the cytotoxicity at 70.5 h is -1.11%.
With `Cn1cnc2c1CCN(CC(O)c1ccc(S(C)(=O)=O)cc1)C2` (stereo not given), the cytotoxicity at 70.5 h was -8.26%.
For the molecule `O=C(O)c1ccc(S(=O)(=O)Nc2ccccc2F)c(F)c1`, the cytotoxicity at 70.5 h is -11%.
As to `Cc1cc(C)c(S(=O)(=O)Nc2ccccc2CC(F)(F)F)cc1C(=O)O`, the cytotoxicity at 70.5 h is -8.62%.
The figure for `CNC(=O)Cc1noc(Cc2ccc3c(c2)CCCC3)n1` is 12.5%; for `Cc1ccc(Cl)c2c1C1(NC(=O)c3cccnc3N1)C(=O)N2` (stereo not given) it is -5.73%.
Consider `Cn1cc(NC(=O)Nc2ccccn2)cc(Cl)c1=O`, for which the cytotoxicity at 70.5 h worked out at 9.47%.
Turning to `COC(=O)c1ccc(N(C)C2CCC2)nn1`, the cytotoxicity at 70.5 h was -5.28%.
The figure for `CN(c1ccc(C(N)=O)nn1)C1CCC1` is -15.8%; for `O=C(NCCc1nnc2n1CCCCC2)N1CCC2(CCOC2)C1` (stereo not given) it is -5.08%; for `CS(=O)(=O)Cc1nc(CN2CCCc3sccc3C2)cs1` it is -5.84%.
For the molecule `CCN(C)c1ccc(CNS(=O)(=O)C2CCOCC2)cc1F`, the cytotoxicity at 70.5 h was -10.6%.
In the case of `CNC(=O)c1ccc(N(C)C2CCC2)nn1`, the cytotoxicity at 70.5 h worked out at 9.71%.
In the case of `CN(Cc1ccc(Cl)c(F)c1)C(=O)CCc1ccncc1`, the cytotoxicity at 70.5 h was -6.42%.
As for `CCCn1nnnc1CN(C)C(C)c1ccc(C)cc1` (stereo not given), the figure is -5.6%; as for `CCCn1nnnc1CN(c1ccc(N2CCOCC2)cc1)C(C)C`, -8.46%; as for `CS(=O)(=O)Cc1nc(CN2CCOc3ccccc3C2)cs1`, -6.97%.
On to `CN(Cc1ccc(Cl)c(F)c1)C(=O)c1ccncc1F`, for which the cytotoxicity at 70.5 h was -6.79%.
For the molecule `Cc1cc(C)n(CC2CCCN2C(=O)Cc2cn3ccsc3n2)n1` (stereo not given), the cytotoxicity at 70.5 h is -12.4%.
As for `CCn1nc(C)c(S(=O)(=O)N(C)c2ccc(Cl)cn2)c1C`, the figure is 12%; as for `COC(=O)c1cccc(NCC(=O)NC(N)=O)c1`, 12.1%.
Consider `COc1cc(CNC(C)Cn2ccnc2)cc2c1OCCO2` (stereo not given), for which the cytotoxicity at 70.5 h was determined as 21.5%.
Take `O=C(COCc1ccccc1Cl)N1CCN(c2cnccn2)CC1`: the cytotoxicity at 70.5 h was -6.52%.
`NC(=O)C1(CNC(=O)CCc2ccc(Cl)s2)CCOCC1`: the cytotoxicity at 70.5 h was -7.77%.
Take `CNC(=O)C1CCCCN1C(=O)C1CCN(S(C)(=O)=O)CC1` (stereo not given): the cytotoxicity at 70.5 h is -11.7%.
The figure for `Cc1nc(CN2C[C@@H]3CN(C(=O)c4cnccn4)C[C@@H]3C2=O)cs1` is -10.8%; for `COCC(=O)N1CCC2(CCC2NC(=O)c2ccn(C)c2)CC1` (stereo not given) it is -9.35%; for `CC(Cn1ccnc1)NCc1cc(Br)c2c(c1)OCO2` (stereo not given) it is 12.5%.
As for `COc1cc(CNC(C)Cn2ccnc2)cc2c1OCO2` (stereo not given), the figure is -10.9%; as for `COc1cc(CNCCn2ccnc2)cc2c1OCO2`, 1.27%; as for `CC(C)NC(=O)N1Cc2nccn2CC(CN2CCCC2)C1` (stereo not given), -6.64%.
On to `CNC(=O)COC1COC2(CCN(c3ccc(C#N)cc3)CC2)C1` (stereo not given), for which the cytotoxicity at 70.5 h was -5.98%.
The figure for `CC(=O)NCC(=O)N1Cc2nccn2CC(CN(C)C(C)C)C1` (stereo not given) is -13.6%.
As for `c1coc(COCc2ncn3c2CN(Cc2cccs2)CCC3)c1`, the cytotoxicity at 70.5 h is -2.67%.
`Cc1nc(CN2C[C@@H]3CN(C(=O)[C@H]4CCCO4)C[C@@H]3C2=O)cs1`: the cytotoxicity at 70.5 h is -8.74%.
As for `CCc1ccc(CN2C[C@@H](c3nc(C)no3)C[C@H]3OCC[C@H]32)o1`, the cytotoxicity at 70.5 h is -3.87%.
As for `c1csc(CN2CCCn3cnc(COCC4CC4)c3C2)c1`, the figure is 0.853%.

The values are drawn from ChEMBL document CHEMBL3507680, “University of Dundee, Gates Library screen for HepG2 cell viability”.
